Results on five molecules are retold here after article PMC10318456, “Selective inhibitors of the PSEN1–gamma-secretase complex” (The Journal of Biological Chemistry, 2023).

Usually IC50 stands for the concentration that inhibits the measured activity by half.

Data set [1] concerns the target T1, PSEN1-APH1B γ-secretase complex (Homo sapiens, UniProt P49768).
T1 construct: expressed in transfected cells; host or cells: Psen1/2 double KO/Aph1ABC triple KO MEFs, pMSCV retroviral PSEN-IRES-APH1
The experiment in a line: Aβ40 secretion by MEF cell line expressing only PSEN1-APH1B γ-secretase (APP-C99-GFP reporter). It counts as cell-based. The text has this:
(§1) Mouse embryonic fibroblast (MEF) cells deficient for the Psen and Aph1 genes (Psen1/2^−/−, Aph1ABC^−/−) were reconstituted with human PSEN1 or PSEN2 and with human APH1A or APH1B to generate four independent cell lines, each constitutively expressing exclusively one type of γ-secretase complex (Fig. S1A) ([19]). A human APP-C99-GFP reporter was introduced to enable the measurement of Aβ peptides in the conditioned media of the cells to monitor γ-secretase activity. The assay was established in a 96-well format.
(§2) Conditional Psen1/2 double KO mice were crossed with conditional Aph1ABC triple KO mice ([29], [52], [58], [59]). At embryonic day 7.5, embryos were dissected and dissociated, and cells were plated in the presence of Dulbecco’s modified Eagle’s medium (DMEM)/F12 50% fetal calf serum (FCS) (Invitrogen). Primary MEFs were immortalized by transduction with LargeT antigen. Psen1/2 double KO/Aph1ABC triple KO MEFs were generated by transduction with a Cre-GFP–expressing adenoviral vector, and GFP-positive MEFs were sorted by fluorescence-activated cell sorting analysis. Psen1/2 Aph1ABC-deficient MEFs were maintained in DMEM/f12 10% FCS. To rescue γ-secretase expression, Psen1/2 double KO/Aph1ABC triple KO MEFs were transduced using Murine Stem Cell Virus retroviral vector system (pMSCV) viral vectors (Clontech) containing the human coding sequences of the different PSEN and APH1 homologs and the zeocin selection marker. An Internal Ribosome Entry Site sequence was cloned between the coding sequences for PSEN and APH1 to ensure co-expression of both proteins. Stable transfected cell lines were selected using 500-μg/ml zeocin (Invitrogen). Four different combinations were made: PSEN1 and APH1AL, PSEN1 and APH1B, PSEN2 and APH1AL, and PSEN2 and APH1B. These cell lines were transduced with pMSCV viral vectors (Clontech) expressing APP-C99-GFP-puromycin. After puromycin selection (5 μg/ml), GFP-positive cells were selected through FACS sorting. For the alanine mutagenesis experiment, pMSCV PSEN1-APH1A viral vectors were generated by using a long PCR-based QuikChange strategy (Stratagene). Stable cell lines without clonal selection were generated for each mutant as described above. All cell lines were regularly tested for the absence of mycoplasma and used for maximum 20 passages in culture.
(§3) The number of plated cells and incubation times were determined in respect to linearity of Aβ peptide secretion, the dynamic range of Aβ peptide quantification in the medium, and sensitivity to dimethylsulfoxide (DMSO). […] MEF cells were plated in DMEM F12 supplemented with 10% FCS at 10,000 cells per well in 96-well clear bottom plates in the late afternoon and cultured for 16 h at 37 °C, 5% CO2. In the morning of the second day, the medium was replaced with 60 μl of DMEM/F12 supplemented with 2% FCS, and GSI or DMSO (controls) were added. Compounds were tested in serial dilutions with concentrations ranging from […] to 0.1 nM with 3-fold changes. The final concentration of DMSO in all wells was 0.2%. Plates were put in the incubator again at 37 °C, 5% CO2. After 8 h, the culture media were collected, and 30 μl was used to measure Aβ40 peptides. The cell viability was assessed using the CellTiter-Glo Luminescent assay (Promega) that measures ATP production. All screens were performed at one site, and reported IC50 values throughout the manuscript are from this site (Beerse) unless otherwise indicated.
Standard 96-well SECTOR plates (MSD) were coated with 1.5 μg/ml anti-Aβ JRFcAβ40/28 capture antibody in a final volume of 50 μl of PBS 0.05% Tween 20.

The subject of data set [2] is PSEN1 versus PSEN2 γ-secretase complexes. The experiment in a line: Comparison of the four MEF cell lines: selectivity between γ-secretase complexes (IC50 ratios). Format: cell-based, human.
Description: as §1
GraphPad Prism 7 software was used to generate inhibition fitting curves (four-parameter logistic equation, nonlinear regression) and to determine IC50 and 95% CI values (Fig. S2). Selectivity values (IC50 ratios of PSEN1 versus PSEN2) above 10 are highlighted in red.
as §3
GraphPad Prism 7 software (https://www.graphpad.com) was used to generate inhibition fitting curves (four-parameter logistic equation, nonlinear regression) and to determine IC50 values and 95% CI.

In data set [3] the target is T2, PSEN1-APH1A γ-secretase complex (Homo sapiens, UniProt P49768).
T2 construct: expressed in transfected cells; host or cells: Psen1/2 double KO/Aph1ABC triple KO MEFs, pMSCV retroviral PSEN-IRES-APH1
The experiment in a line: Aβ40 secretion by MEF cell line expressing only PSEN1-APH1A γ-secretase (APP-C99-GFP reporter). Format: cell-based.
Description: as §1, §2
(§4) The number of plated cells and incubation times were determined in respect to linearity of Aβ peptide secretion, the dynamic range of Aβ peptide quantification in the medium, and sensitivity to dimethylsulfoxide (DMSO). […] The cell viability was assessed using the CellTiter-Glo Luminescent assay (Promega) that measures ATP production. […]

The target in data set [4] is T3, PSEN2-APH1A γ-secretase complex (Homo sapiens, UniProt P49810).
T3 construct: expressed in transfected cells; host or cells: Psen1/2 double KO/Aph1ABC triple KO MEFs, pMSCV retroviral PSEN-IRES-APH1
The experiment in a line: Aβ40 secretion by MEF cell line expressing only PSEN2-APH1A γ-secretase (APP-C99-GFP reporter). The note with it: only the 95% CI is given. It counts as cell-based.
Description: as §1
as §2, with “Four different combinations were made: PSEN1 and APH1AL, PSEN1 and APH1B, PSEN2 and APH1AL, and PSEN2 and APH1B. These cell lines were transduced with pMSCV viral vectors (Clontech) expressing APP-C99-GFP-puromycin. After puromycin selection (5 μg/ml), GFP-positive cells were selected through FACS sorting. For the alanine mutagenesis experiment, pMSCV PSEN1-APH1A viral vectors were generated by using a long PCR-based QuikChange strategy (Stratagene). Stable cell lines without clonal selection were generated for each mutant as described above. All cell lines were regularly tested for the absence of mycoplasma and used for maximum 20 passages in culture.” left out
as §4

The target of data set [5] is T4, PSEN2-APH1B γ-secretase complex (Homo sapiens, UniProt P49810).
T4 construct: expressed in transfected cells; host or cells: Psen1/2 double KO/Aph1ABC triple KO MEFs, pMSCV retroviral PSEN-IRES-APH1
Put plainly: Aβ40 secretion by MEF cell line expressing only PSEN2-APH1B γ-secretase (APP-C99-GFP reporter). The note with it: only the 95% CI is given. Format: cell-based.
Description: as §1
(§5) Conditional Psen1/2 double KO mice were crossed with conditional Aph1ABC triple KO mice ([29], [52], [58], [59]). At embryonic day 7.5, embryos were dissected and dissociated, and cells were plated in the presence of Dulbecco’s modified Eagle’s medium (DMEM)/F12 50% fetal calf serum (FCS) (Invitrogen). […] Psen1/2 double KO/Aph1ABC triple KO MEFs were generated by transduction with a Cre-GFP–expressing adenoviral vector, and GFP-positive MEFs were sorted by fluorescence-activated cell sorting analysis. […]
as §4

In data set [6] the target is T5, PSEN2-APH1A γ-secretase complex (Homo sapiens, UniProt P49810+Q92542+Q96BI3+Q9NZ42).
T5 construct: expressed in transfected cells; host or cells: Psen1/2 double KO/Aph1ABC triple KO MEFs, pMSCV retroviral PSEN-IRES-APH1
The experiment in a line: Aβ40 secretion by MEF cell line expressing only PSEN2-APH1A γ-secretase (APP-C99-GFP reporter). The following applies: 8 h, Beerse site unless otherwise indicated, read-out: IC50, Aβ40 peptides. Format: cell-based.
Description: as §1
as §2, with “Four different combinations were made: PSEN1 and APH1AL, PSEN1 and APH1B, PSEN2 and APH1AL, and PSEN2 and APH1B. These cell lines were transduced with pMSCV viral vectors (Clontech) expressing APP-C99-GFP-puromycin. After puromycin selection (5 μg/ml), GFP-positive cells were selected through FACS sorting. For the alanine mutagenesis experiment, pMSCV PSEN1-APH1A viral vectors were generated by using a long PCR-based QuikChange strategy (Stratagene). Stable cell lines without clonal selection were generated for each mutant as described above. All cell lines were regularly tested for the absence of mycoplasma and used for maximum 20 passages in culture.” left out
as §4

For data set [7], the target named is T6, PSEN2-APH1B γ-secretase complex (Homo sapiens, UniProt P49810+Q8WW43+Q92542+Q9NZ42).
T6 construct: expressed in transfected cells; host or cells: Psen1/2 double KO/Aph1ABC triple KO MEFs, pMSCV retroviral PSEN-IRES-APH1
The experiment in a line: Aβ40 secretion by MEF cell line expressing only PSEN2-APH1B γ-secretase (APP-C99-GFP reporter). It counts as cell-based. The note with it: 8 h, Beerse site unless otherwise indicated, read-out: IC50, Aβ40 peptides.
Description: as §1, §5, §4

For data set [8], the system named is PSEN1–γ-secretase complex compared to PSEN2–γ-secretase complexes. The note with it: cell-free in vitro assays; cited from earlier work.
In data set [9] the test system is WT and PSEN2-deficient mice. Details: method as in PMID 23197721. The note with it: cited from earlier work.
For data set [10], the system named is T cell acute lymphoblastic leukemia. Details: method as in PMID 31142678. The note with it: mice; cited from earlier work.
A further data set relates to APP or Notch processing. The following applies: in vitro; cited from earlier work.
Where [11] appears, read: 8 h, Beerse site unless otherwise indicated, read-out: IC50, Aβ40 peptides.
Where [12] appears, read: only the 95% CI is given, read-out: 95% CI of IC50.

Several values for one entry are separate records, joined by “and”; a condition that tells them apart may be missing. Identical values can stand only once. Like-named read-outs stand apart in the source and are kept apart here.

As for `O=C1NCCCCC1N(Cc1ccc(Br)cc1)S(=O)(=O)c1ccc(Cl)cc1` (stereo not shown) [ELN-318463], the concentration for half-maximal inhibition (IC50) in data set [1] (setting [11]) turned out to be 0.0245 µM. Moreover, in data set [2] (IC50 ratios of PSEN1 versus PSEN2, MEF cell lines), the “selectivity for PSEN1 complexes versus PSEN2 complexes” value was determined as 70 fold.
As for `CC(C)C[C@H](NC(=O)[C@H](Cc1ccccc1)C[C@@H](O)[C@H](Cc1ccccc1)NC(=O)OC(C)(C)C)C(=O)N[C@@H](Cc1ccccc1)C(N)=O` [L-685,458], the half-maximal inhibitory concentration (IC50) in data set [3] (setting [12]) lay in the range of 1.21 to 2.37 µM; in [1] (setting [12]) it was 0.597 to 3.86 µM; in [4], 0.992 to 2.6 µM; in data set [5], 2.22 to 5.74 µM.
For `C[C@H](NC(=O)[C@@H](O)c1cc(F)cc(F)c1)C(=O)N[C@@H]1C(=O)N(C)c2ccccc2-c2ccccc21` [LY411575], the “selectivity toward the different γ-secretase complexes” value in data set [2] (four MEF cell lines) is less than 10 fold; in data set [2] (four MEF cell lines, listed as LY-411575), “without convincing selectivity”. Moreover, the “potency toward all four γ-secretase activities” value in data set [2] (four MEF cell lines, in words) was “low nanomolar potencies”.
Take `O=C(O)CC[C@H]1CC[C@@](c2cc(F)ccc2F)(S(=O)(=O)c2ccc(Cl)cc2)CC1` [MK-0752]: in data set [3] (setting [11]), the IC50 is 0.0053 µM. For the same molecule, in [1] (setting [11]), the IC50 is 0.0016 µM. Besides, in data set [2] (MEF cell lines), the “selectivity versus PSEN2–APH1A” value came out at 14 fold and the “selectivity versus PSEN2–APH1B” value was 70 fold.
As for `O=S(=O)(NC1CCC(c2cc(F)ccc2F)(S(=O)(=O)c2ccc(Cl)cc2)CC1)C(F)(F)F` (stereo not drawn) [MRK-560, N-[cis-4-[(4-chlorophenyl)sulfonyl]-4-(2,5-difluorophenyl)cyclohexyl]-1,1,1-trifluoromethanesulfonamide], the IC50 in data set [3] (setting [11]) was 0.0014 µM; in [1] (setting [11]), 0.00042 µM and 0.0004 µM; in data set [6], more than 0.13 µM; in data set [7] it was more than 0.13 µM. Also, the “selectivity PSEN1–APH1B versus PSEN1–APH1A” value in data set [2] (MEF cell lines) was 4 fold. In addition, in [8], the “selectivity for PSEN1 complexes versus PSEN2 complexes” value was 5 fold. Further, the “selectivity toward the PSEN1–γ-secretase complex compared to PSEN2–γ-secretase complexes” value in [8] is given as 37 fold. For the same molecule, the Aβ levels entry in [9] (WT and PSEN2-deficient mice) is “potently and dose dependently reduced Aβ levels”. Moreover, in data set [9] (WT mice), the safety of treatment result is listed as “safe”. Also, the Notch-related toxicity result in [9] (mice genetically deficient for PSEN2) was “caused major Notch-related toxicity”. In data set [10], the “protection in T cell acute lymphoblastic leukemia” value is “protected the mice”. For the same molecule, the “selectivity versus APP or Notch processing” value with APP or Notch processing was “does not show selectivity”.
